Tests used:
human CYP11B2 = biological target: T1, human CYP11B2 (Homo sapiens, UniProt P19099); assay: G-402 cellular enzyme assay, human CYP11B2 (aldosterone release, HTRF); assay type: cell-based; conditions: G-402 cells, 1 μM Deoxycorticosterone
T1 construct: expressed in transfected cells
T1 sequence (P19099 25-503): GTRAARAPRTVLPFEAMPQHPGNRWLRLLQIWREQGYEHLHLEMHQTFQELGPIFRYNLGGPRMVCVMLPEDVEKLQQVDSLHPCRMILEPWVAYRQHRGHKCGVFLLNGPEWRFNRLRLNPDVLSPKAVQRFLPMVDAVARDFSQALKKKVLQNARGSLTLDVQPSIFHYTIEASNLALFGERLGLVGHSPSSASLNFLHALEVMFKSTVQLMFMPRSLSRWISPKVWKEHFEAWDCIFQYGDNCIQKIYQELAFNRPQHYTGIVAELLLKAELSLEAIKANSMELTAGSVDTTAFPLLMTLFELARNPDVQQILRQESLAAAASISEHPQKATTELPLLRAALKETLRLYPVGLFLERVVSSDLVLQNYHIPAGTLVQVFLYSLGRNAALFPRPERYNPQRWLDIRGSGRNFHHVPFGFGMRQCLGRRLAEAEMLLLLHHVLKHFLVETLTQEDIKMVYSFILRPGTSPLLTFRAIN
Outline: (§1)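 Supernatant steroid product measured by HTRF (aldosterone for CYP11B2, cortisol for CYP11B1) after 16 h exposure of stably transfected G-402 cells to compound. Substrates were 1 μM deoxycorticosterone and 1 μM deoxycortisol, respectively; EC50 derived from a four-parameter MMF curve fit.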

human CYP11B1 = biological target: T2, human CYP11B1 (Homo sapiens, UniProt P15538); assay: G-402 cellular enzyme assay, human CYP11B1 (cortisol release, HTRF); assay type: cell-based; conditions: G-402 cells, 1 μM Deoxycortisol
T2 construct: expressed in transfected cells
T2 sequence (P15538 25-503): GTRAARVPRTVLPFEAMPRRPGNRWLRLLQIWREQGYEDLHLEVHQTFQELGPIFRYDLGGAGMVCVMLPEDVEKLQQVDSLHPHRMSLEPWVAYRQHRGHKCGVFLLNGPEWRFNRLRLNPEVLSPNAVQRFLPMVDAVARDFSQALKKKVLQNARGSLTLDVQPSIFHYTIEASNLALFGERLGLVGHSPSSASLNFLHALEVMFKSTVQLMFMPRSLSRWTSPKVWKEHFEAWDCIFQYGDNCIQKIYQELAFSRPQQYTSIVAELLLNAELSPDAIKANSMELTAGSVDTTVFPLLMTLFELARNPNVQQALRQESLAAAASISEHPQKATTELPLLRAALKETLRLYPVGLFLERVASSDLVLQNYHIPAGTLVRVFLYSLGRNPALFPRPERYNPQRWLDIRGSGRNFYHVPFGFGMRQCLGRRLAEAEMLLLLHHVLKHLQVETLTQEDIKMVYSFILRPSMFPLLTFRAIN
Outline: as §1

Compound | EC50 (human CYP11B2) | EC50 (human CYP11B1)
CC1(C)c2cc(Cl)ccc2C(=O)N1c1cncc(CNC(=O)c2cccnc2)c1 [Example 438, N-[5-(6-Chloro-1,1-dimethyl-3-oxo-1,3-dihydro-isoindol-2-yl)-pyridin-3-ylmethyl]-nicotinamide] | 3.8 nM | 202 nM
COCc1cncc(N2CCc3cc(Cl)ccc3C2=O)c1 [Example 193, 6-Chloro-2-(5-methoxymethyl-pyridin-3-yl)-3,4-dihydro-2H-isoquinolin-1-one] | 20.1 nM | 217 nM
O=C1c2ccc(Cl)cc2CCN1c1cncc(Cc2cc(F)ccc2F)c1 [Example 212, 6-Chloro-2-[5-(2,5-difluoro-benzyl)-pyridin-3-yl]-3,4-dihydro-2H-isoquinolin-1-one] | 8.4 nM | 81.6 nM
CC[C@H]1c2cc(Cl)ccc2C(=O)N1c1cncc2c1CCC[C@@H]2NC(C)=O (single isomer, unassigned) [Example 356, N-[(S or R)-4-((S or R)-5-Chloro-3-ethyl-1-oxo-1,3-dihydro-isoindol-2-yl)-5,6,7,8-tetrahydro-isoquinolin-8-yl]-acctamide] | 2000 nM | 737 nM
COc1cncc(N2CC(C)(C)c3cc(Cl)ccc3C2=O)c1 [Example 103, 6-Chloro-2-(5-methoxy-pyridin-3-yl)-4,4-dimethyl-3,4-dihydro-2H-isoquinolin-1-one] | 564 nM | 11000 nM
CC(O)(c1cc(F)cc(F)c1)c1cncc(N2CCc3cc(Cl)ccc3C2=O)c1 (centres unmarked) [Example 37, 6-Chloro-2-{5-[1-(3,5-difluoro-phenyl)-1-hydroxy-ethyl]-pyridin-3-yl}-3,4-dihydro-2H-isoquinolin-1-one] | 9.2 nM | 149 nM
CC[C@@H]1c2cc(Cl)ccc2C(=O)N1c1cncc2c1CCC[C@@H]2NS(C)(=O)=O (single isomer, unassigned) [Example 349, N-[(S or R)-4-((R or S)-5-Chloro-3-ethyl-1-oxo-1,3-dihydro-isoindol-2-yl)-5,6,7,8-tetrahydro-isoquinolin-8-yl]-methanesulfonamide] | 982 nM | 15100 nM
O=C(c1cncc(N2CCc3cc(Cl)ccc3C2=O)c1)N1CCOCC1 [Example 39, 6-Chloro-2-[5-(morpholine-4-carbonyl)-pyridin-3-yl]-3,4-dihydro-2H-isoquinolin-1-one] | 1090 nM | 10000 nM
O=C1c2ccc(Cl)cc2CCN1c1cncc(-c2cccc(Cl)c2)c1 [Example 234, 6-Chloro-2-[5-(3-chloro-phenyl)-pyridin-3-yl]-3,4-dihydro-2H-isoquinolin-1-one] | 44.5 nM | 1580 nM
CC(=O)N1CC[C@H](Oc2cncc(N3C(=O)c4ccc(Cl)cc4C3(C)C)c2)C1 [Example 443, 2-[5-((S)-1-Acetyl-pyrrolidin-3-yloxy)-pyridin-3-yl]-5-chloro-3,3-dimethyl-2,3-dihydro-isoindol-1-one] | 9 nM | 1170 nM
CCC(=O)NC1CCCc2c1cncc2N1CCc2cc(Cl)ccc2C1=O (centres unmarked) [Example 29, N-(6-Chloro-1-oxo-3,4,5′,6′,7′,8′-hexahydro-1H-[2,4′]biisoquinolinyl-8′-yl)-propionamide] | 318 nM | 12900 nM
Cc1nncn1Cc1cncc(N2CCc3cc(Cl)ccc3C2=O)c1 [Example 177, 6-Chloro-2-[5-(3-methyl-[1,2,4]triazol-4-ylmethyl)-pyridin-3-yl]-3,4-dihydro-2H-isoquinolin-1-one] | 412 nM | 6310 nM
CN(Cc1cncc(N2C(=O)c3ccc(Cl)cc3C2(C)C)c1)S(C)(=O)=O [Example 392, N-[5-(6-Chloro-1,1-dimethyl-3-oxo-1,3-dihydro-isoindol-2-yl)-pyridin-3-ylmethyl]-N-methyl-methane-sulfonamide] | 9.2 nM | 327 nM
Cc1cncc(N2CCc3cc(Cl)ccc3C2=O)n1 [Example 38, 6-Chloro-2-(6-methyl-pyrazin-2-yl)-3,4-dihydro-2H-isoquinolin-1-one] | 1070 nM | 8390 nM
CCS(=O)(=O)NCc1cncc(N2C(=O)c3ccc(F)cc3C23CC3)c1 [Example 393, N-{[5-(6′-Fluoro-3′-oxospiro [cyclopropane-1,1′-isoindol]-2′(3′H)-yl)pyridin-3-yl]methyl} ethane-sulfonamide] | 265 nM | 8430 nM
CCOc1ccc2c(n1)C(C)(C)N(c1cncc(F)c1)C2=O [Example 299, 2-Ethoxy-6-(5-fluoro-pyridin-3-yl)-7,7-dimethyl-6,7-dihydro-pyrrolo[3,4-b]pyridin-5-one] | 787 nM | 48500 nM
CCc1nc(C)cn1Cc1cncc(N2CCc3cc(Cl)ccc3C2=O)c1 [Example 143, 6-Chloro-2-[5-(2-ethyl-4-methyl-imidazol-1-ylmethyl)-pyridin-3-yl]-3,4-dihydro-2H-isoquinolin-1-one] | 258 nM | 4450 nM
O=C1c2ccc(Cl)cc2C2(CC2)N1c1cncc(OC(F)F)c1 [Example 291, 6′-Chloro-2′-[5-(difluoromethoxy)pyridin-3-yl]spiro[cyclo-propane-1,1′-isoindol]-3′(2′H)-one] | 3.2 nM | 122 nM
CC(=O)N[C@@H]1CCCc2c1cncc2N1C(=O)c2ccc(Cl)cc2[C@H]1C1CC1 (single isomer, unassigned) [Example 372, N-[(R or S)-4-((R or S)-5-Chloro-3-cyclopropyl-1-oxo-1,3-dihydro-isoindol-2-yl)-5,6,7,8-tetrahydro-isoquinolin-8-yl]-acetamide] | 100 nM | 22800 nM
CC[C@@H]1c2cc(Cl)ccc2C(=O)N1c1cncc2c1CCC[C@H]2NC(C)=O (single isomer, unassigned) [Example 358, N-[(R or S)-4-((R or S)-5-Chloro-3-ethyl-1-oxo-1,3-dihydro-isoindol-2-yl)-5,6,7,8-tetrahydro-isoquinolin-8-yl]-acetamide] | 5 nM | 433 nM
CC1(C)c2cc(Cl)ccc2C(=O)N1c1cncc(CNC(=O)c2ccncc2Cl)c1 [Example 437, 3-Chloro-N-[5-(6-chloro-1,1-dimethyl-3-oxo-1,3-dihydro-isoindol-2-yl)-pyridin-3-ylmethyl]-isonicotinamide] | 77.6 nM | 1640 nM
COc1cncc(N2CCc3cc(Cl)c(F)cc3C2=O)c1 [Example 100, 6-Chloro-7-fluoro-2-(5-methoxy-pyridin-3-yl)-3,4-dihydro-2H-isoquinolin-1-one] | 17.2 nM | 485 nM
CCC(=O)NC1CCCc2c1cncc2N1Cc2cc(Cl)ccc2C1=O (single isomer, unassigned) [Example 314, N-[(R or S)-4-(5-Chloro-1-oxo-1,3-dihydro-isoindol-2-yl)-5,6,7,8-tetrahydro-isoquinolin-8-yl]-propionamide] | 28.2 nM | 5230 nM
Cn1cnc(CNc2cncc(N3CCc4cc(Cl)ccc4C3=O)c2)c1 [Example 228, 6-Chloro-2-{5-[(1-methyl-1H-imidazol-4-ylmethyl)-amino]-pyridin-3-yl}-3,4-dihydro-2H-isoquinolin-1-one] | 263 nM | 12400 nM
CC1(C)CN(c2cncc(F)c2)C(=O)c2ccc(Cl)cc21 [Example 104, 6-Chloro-2-(5-fluoro-pyridin-3-yl)-4,4-dimethyl-3,4-dihydro-2H-isoquinolin-1-one] | 2340 nM | 59800 nM
CCC1c2cc(Cl)ccc2C(=O)N1c1cncc(F)c1 (centres unmarked) [Example 126, 5-Chloro-3-ethyl-2-(5-fluoro-pyridin-3-yl)-2,3-dihydro-isoindol-1-one] | 37.9 nM | 3560 nM
CC[C@@H]1c2cc(Cl)ccc2C(=O)N1c1cncc2c1CCC[C@H]2NS(C)(=O)=O (single isomer, unassigned) [Example 347, N-[(R or S)-4-((R or S)-5-Chloro-3-ethyl-1-oxo-1,3-dihydro-isoindol-2-yl)-5,6,7,8-tetrahydro-isoquinolin-8-yl]-methanesulfonamide] | 162 nM | 22900 nM
CCC1c2ccc(Cl)cc2C(=O)N1c1cncc(CNS(C)(=O)=O)c1 (single isomer, unassigned) [Example 405, N-[5-((S or R)-5-Chloro-1-ethyl-3-oxo-1,3-dihydro-isoindol-2-yl)-pyridin-3-ylmethyl]-methane-sulfonamide] | 546 nM | 35200 nM

Reference: US9133158B2, “Bicyclic dihydroisoquinoline-1-one derivatives” (Hoffmann-La Roche Inc., priority 2011, dated 2015)
